Source: ChEMBL document CHEMBL1139156, “Novel naphthyridines are histamine H3 antagonists and serotonin reuptake transporter inhibitors” (Bioorg Med Chem Lett, 2007)

How the values were obtained:
Histamine H3 receptor [1] = target: T1, Histamine H3 receptor (Homo sapiens, UniProt Q9Y5N1); experiment: Antagonist activity at human histamine H3 receptor expressed in SK-N-MC cells assessed as effect on cAMP accumulation; assay type: functional, cell-based; details: read-out: pA2 (converted)
[2] = target: Sodium-dependent serotonin transporter (Homo sapiens, UniProt P31645); experiment: Binding affinity to human SERT
Sodium-dependent serotonin transporter (Homo sapiens, UniProt P31645), sequence (P31645 whole entry): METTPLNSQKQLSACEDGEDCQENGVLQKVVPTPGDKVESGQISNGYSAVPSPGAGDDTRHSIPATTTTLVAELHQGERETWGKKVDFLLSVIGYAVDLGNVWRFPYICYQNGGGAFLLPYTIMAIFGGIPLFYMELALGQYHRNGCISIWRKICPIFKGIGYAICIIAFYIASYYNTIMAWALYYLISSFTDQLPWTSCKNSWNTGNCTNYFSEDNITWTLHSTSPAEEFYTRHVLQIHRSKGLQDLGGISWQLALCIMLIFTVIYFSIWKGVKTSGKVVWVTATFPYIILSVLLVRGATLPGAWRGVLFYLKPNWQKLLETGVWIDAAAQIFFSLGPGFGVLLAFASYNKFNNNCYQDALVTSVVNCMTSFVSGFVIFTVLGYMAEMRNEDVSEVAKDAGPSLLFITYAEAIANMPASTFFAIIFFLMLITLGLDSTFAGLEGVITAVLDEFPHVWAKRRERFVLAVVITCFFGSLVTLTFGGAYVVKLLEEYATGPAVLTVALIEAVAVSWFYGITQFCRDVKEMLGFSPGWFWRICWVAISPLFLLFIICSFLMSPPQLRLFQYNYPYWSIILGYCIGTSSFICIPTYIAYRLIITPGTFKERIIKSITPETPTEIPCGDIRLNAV

Histamine H3 receptor [3] = target: T1, Histamine H3 receptor; experiment: Displacement of N-[3H]alpha-methylhistamine from human histamine H3 receptor expressed in SK-N-MC cells; assay type: cell-based
[4] = Cmax in rat plasma at 10 mg/kg, po after 1 hr; assay type: ADME, organism-based; parameters: dose 10 mg/kg, route oral
[5] = Cmax in rat brain at 10 mg/kg, po after 6 hrs; assay type: ADME, organism-based; parameters: dose 10 mg/kg, route oral
[6] = Drug level in rat brain at 10 mg/kg, po after 24 hrs; assay type: ADME, organism-based; parameters: dose 10 mg/kg, route oral; details: read-out: Drug uptake
[7] = target: Sodium-dependent serotonin transporter (Rattus norvegicus, UniProt P31652); experiment: Binding affinity to rat SERT
Sodium-dependent serotonin transporter (Rattus norvegicus, UniProt P31652), sequence (P31652 whole entry): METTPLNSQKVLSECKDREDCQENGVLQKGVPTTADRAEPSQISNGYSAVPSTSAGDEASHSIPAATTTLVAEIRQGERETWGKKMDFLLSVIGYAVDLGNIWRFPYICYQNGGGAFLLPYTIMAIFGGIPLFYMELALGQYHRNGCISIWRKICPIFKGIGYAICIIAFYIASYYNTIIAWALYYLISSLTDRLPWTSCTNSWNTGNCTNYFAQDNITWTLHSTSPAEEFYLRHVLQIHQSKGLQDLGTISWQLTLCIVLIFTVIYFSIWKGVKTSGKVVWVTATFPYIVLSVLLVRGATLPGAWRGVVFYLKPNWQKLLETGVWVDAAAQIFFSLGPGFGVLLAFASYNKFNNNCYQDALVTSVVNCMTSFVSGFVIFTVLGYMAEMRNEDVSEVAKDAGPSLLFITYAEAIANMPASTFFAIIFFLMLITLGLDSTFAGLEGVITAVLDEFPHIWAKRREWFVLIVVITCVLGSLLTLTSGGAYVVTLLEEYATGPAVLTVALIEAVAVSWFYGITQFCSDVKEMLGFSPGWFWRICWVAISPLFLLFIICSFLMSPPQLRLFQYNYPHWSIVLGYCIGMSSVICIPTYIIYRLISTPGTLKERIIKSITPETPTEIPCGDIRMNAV

T1 sequence (Q9Y5N1 whole entry): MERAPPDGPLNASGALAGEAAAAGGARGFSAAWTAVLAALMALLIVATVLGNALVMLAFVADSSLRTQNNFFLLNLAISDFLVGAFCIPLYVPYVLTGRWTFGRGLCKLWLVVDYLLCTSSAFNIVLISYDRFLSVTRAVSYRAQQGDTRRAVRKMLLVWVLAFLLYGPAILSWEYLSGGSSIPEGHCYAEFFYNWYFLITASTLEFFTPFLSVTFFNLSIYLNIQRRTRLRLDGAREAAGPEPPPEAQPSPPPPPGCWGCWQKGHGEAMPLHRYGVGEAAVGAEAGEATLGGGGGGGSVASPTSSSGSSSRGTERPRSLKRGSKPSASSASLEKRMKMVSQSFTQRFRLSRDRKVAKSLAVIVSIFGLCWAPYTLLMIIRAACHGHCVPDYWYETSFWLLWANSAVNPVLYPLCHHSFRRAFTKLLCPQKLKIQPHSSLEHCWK

Row | SMILES | Kb (Histamine H3 receptor [1]) [nM] | other results
1 | CN1Cc2cc(OCCCN3CCCCC3)ncc2C(c2ccc(Cl)c(Cl)c2)C1 (centres undefined) | 18.2 | 
2 | c1ccc(C2CNCc3cc(OCCCN4CCOCC4)ncc32)cc1 (centres undefined) |  | Ki [2]: 4770 nM; Ki (Histamine H3 receptor [3]): 13 nM; Cmax [4]: 220 nM; Cmax [5]: 5560 nM; concentration at 24 h [6]: > 600 nM
3 | COc1ccc(C2CN(C)Cc3cc(OCCCN4CCOCC4)ncc32)cc1 (centres undefined) | 11.7 | 
4 | COc1ccc(C2CNCc3cc(OCCCN4CCCCC4)ncc32)cc1 (centres undefined) | 5.89 | Ki [7]: 46 nM
5 | COc1ccc(C2CNCc3cc(OCC4CCN(C(C)C)CC4)ncc32)cc1 (centres undefined) | 3.55 | 
6 | Clc1ccccc1C1CNCc2cc(OCCCN3CCCCC3)ncc21 (centres undefined) | 1.05 | 
7 | Clc1ccc(C2CNCc3cc(OCCCN4CCCCC4)ncc32)cc1Cl (centres undefined) | 11.2 | Ki [2]: 32 nM
8 | CC(C)N1CCC(COc2cc3c(cn2)C(c2ccc(Cl)c(Cl)c2)CNC3)CC1 (centres undefined) |  | Ki [7]: 18 nM; Ki [2]: 37 nM; Ki (Histamine H3 receptor [3]): 13 nM
9 | CN1Cc2cc(OCCCN3CCCCC3)ncc2C(c2ccc(Cl)c(F)c2)C1 (centres undefined) | 16.6 | Ki [7]: 26 nM; Ki [2]: 147 nM; Ki (Histamine H3 receptor [3]): 7 nM
10 | CCN(CC)CCCOc1cc2c(cn1)C(c1ccccc1)CN(C)C2 (centres undefined) | 0.661 | 
11 | CCN(CC)CCCOc1cc2c(cn1)C(c1ccc(Cl)c(Cl)c1)CNC2 (centres undefined) | 14.1 | 
12 | Clc1ccc(C2CNCc3cc(OCCCN4CCCCC4)ncc32)cc1 (centres undefined) | 3.89 | 

The next lines start with results.

Row | Kb (Histamine H3 receptor [1]) [nM] | SMILES | other results
13 | 21.4 | CN1Cc2cc(OCCCN3CCCCC3)ncc2C(c2ccccc2)C1 (centres undefined) | 
14 | 0.724 | c1ccc(C2CNCc3cc(OCCCN4CCCCC4)ncc32)cc1 (centres undefined) | 
15 | 3.55 | CN1Cc2cc(OCCCN3CCCCC3)ncc2C(c2ccc(F)cc2)C1 (centres undefined) | 
16 | 25.7 | COc1cccc(C2CN(C)Cc3cc(OCCCN4CCCCC4)ncc32)c1 (centres undefined) | 
17 | 9.77 | CN1Cc2cc(OCCCN3CCCCC3)ncc2C(c2cccc(Cl)c2)C1 (centres undefined) | 
18 | 1.05 | CN1Cc2cc(OCCCN3CCCCC3)ncc2C(c2ccccc2F)C1 (centres undefined) | 
